Assay results: US20100227859A1, “TRICYCLIC COMPOUNDS AS MATRIX METALLOPROTEINASE INHIBITORS” (priority 2007, published 2010)

What follows are molecules tested against purified human MMP-12 enzyme (Homo sapiens, UniProt P39900) (assay: MMP-12 FRET assay). Conditions: substrate 20 μM, room temperature.
Type: biochemical
In short: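 Enzyme pre-incubated 30 min at room temperature with compound in 50 mM HEPES pH 7.4, 100 mM NaCl, 5 mM CaCl2, 0.005% Brij-35, 10% DMSO final. Reaction started with 20 μM MCA-Pro-Leu-Gly-Leu-Dpa(DNP)-Ala-Arg, and initial cleavage rate read over 30 min (λex 325, λem 395 nm). IC50 from slope-factor inhibition fit.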

Sequence of purified human MMP-12 enzyme (P39900 106-470): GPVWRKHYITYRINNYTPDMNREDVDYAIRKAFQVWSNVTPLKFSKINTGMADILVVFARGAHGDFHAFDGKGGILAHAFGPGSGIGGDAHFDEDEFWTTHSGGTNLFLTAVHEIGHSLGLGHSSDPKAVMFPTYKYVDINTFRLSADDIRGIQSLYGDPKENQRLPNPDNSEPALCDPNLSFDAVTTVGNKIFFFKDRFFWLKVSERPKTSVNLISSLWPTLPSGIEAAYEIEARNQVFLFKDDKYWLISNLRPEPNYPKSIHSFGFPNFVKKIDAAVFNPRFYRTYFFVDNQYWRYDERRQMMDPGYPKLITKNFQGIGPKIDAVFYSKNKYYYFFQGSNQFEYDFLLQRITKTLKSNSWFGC

Point of comparison: Cc1nc(CC(C)C)sc1-c1ccc2c(c1)oc1ccc(S(=O)(=O)N[C@H](C(=O)O)C(C)C)cc12 [Compound 247, (S)-2-(7-(2-isobutyl-4-methylthiazol-5-yl)dibenzo[b,d]furan-2-sulfonamido)-3-methylbutanoic acid], IC50 131 nM. Against it:
- CCCN(Cc1cnc(-c2ccc3oc4cc(S(=O)(=O)N[C@H](C(=O)O)C(C)C)ccc4c3c2)s1)CC1CC1 [Compound 213, (S)-2-(8-(5-(((cyclopropylmethyl)(propyl)amino)methyl)thiazol-2-yl)dibenzo[b,d]furan-3-sulfonamido)-3-methylbutanoic acid] — 3.3-fold lower, 40 nM
- CC(C)[C@H](NS(=O)(=O)c1ccc2c(c1)oc1ccc(-c3ncc(Cn4cccn4)s3)cc12)C(=O)O [Compound 214, (S)-2-(8-(5-((1H-pyrazol-1-yl)methyl)thiazol-2-yl)dibenzo[b,d]furan-3-sulfonamido)-3-methylbutanoic acid] — 35-fold lower, 3.7 nM
- CC(C)[C@H](NS(=O)(=O)c1ccc2c(c1)oc1ccc(-c3ncc(CO)s3)cc12)C(=O)O [Compound 215, (S)-2-(8-(5-(hydroxymethyl)thiazol-2-yl)dibenzo[b,d]furan-3-sulfonamido)-3-methylbutanoic acid] — 55-fold lower, 2.4 nM
- CC(C)[C@H](NS(=O)(=O)c1ccc2c(c1)oc1ccc(-c3ccc(-c4ccon4)s3)cc12)C(=O)O [Compound 216, (S)-2-(8-(5-(isoxazol-3-yl)thiophen-2-yl)dibenzo[b,d]furan-3-sulfonamido)-3-methylbutanoic acid] — 29-fold lower, 4.5 nM
- CC(C)[C@H](NS(=O)(=O)c1ccc2c(c1)oc1ccc(-c3nc(Br)cs3)cc12)C(=O)O [Compound 217, (S)-2-(8-(4-bromothiazol-2-yl)dibenzo[b,d]furan-3-sulfonamido)-3-methylbutanoic acid] — lower, < 1.5 nM
- CC(C)[C@H](NS(=O)(=O)c1ccc2c(c1)oc1ccc(-c3nc4c(F)cccc4s3)cc12)C(=O)O [Compound 218, (S)-2-(8-(4-fluorobenzo[d]thiazol-2-yl)dibenzo[b,d]furan-3-sulfonamido)-3-methylbutanoic acid] — lower, < 1.5 nM
- CC(C)[C@H](NS(=O)(=O)c1ccc2c(c1)oc1ccc(-c3nc4cc(F)ccc4s3)cc12)C(=O)O [Compound 219, (S)-2-(8-(5-fluorobenzo[d]thiazol-2-yl)dibenzo[b,d]furan-3-sulfonamido)-3-methylbutanoic acid] — lower, < 1.5 nM
- CC(C)[C@H](NS(=O)(=O)c1ccc2c(c1)oc1ccc(-c3nc4cc(F)c(F)cc4s3)cc12)C(=O)O [Compound 220, (S)-2-(8-(5,6-difluorobenzo[d]thiazol-2-yl)dibenzo[b,d]furan-3-sulfonamido)-3-methylbutanoic acid] — lower, < 1.5 nM
- CC(C)[C@H](NS(=O)(=O)c1ccc2c(c1)oc1ccc(-c3nc4ccc(OC(F)(F)F)cc4s3)cc12)C(=O)O [Compound 221, (S)-3-methyl-2-(8-(6-(trifluoromethoxy)benzo[d]thiazol-2-yl)dibenzo[b,d]furan-3-sulfonamido)butanoic acid] — 77-fold lower, 1.7 nM
- CC(C)[C@H](NS(=O)(=O)c1ccc2c(c1)oc1ccc(-c3nc4c(F)c(F)c(F)cc4s3)cc12)C(=O)O [Compound 222, (S)-3-methyl-2-(8-(4,5,6-trifluorobenzo[d]thiazol-2-yl)dibenzo[b,d]furan-3-sulfonamido)butanoic acid] — 27-fold lower, 4.9 nM
- COc1cccc2sc(-c3ccc4oc5cc(S(=O)(=O)N[C@H](C(=O)O)C(C)C)ccc5c4c3)nc12 [Compound 223, (S)-2-(8-(4-methoxybenzo[d]thiazol-2-yl)dibenzo[b,d]furan-3-sulfonamido)-3-methylbutanoic acid] — 10-fold lower, 13 nM
- CC(C)[C@H](NS(=O)(=O)c1ccc2c(c1)oc1ccc(-c3ncc(Cl)s3)cc12)C(=O)O [Compound 224, (S)-2-(8-(5-chlorothiazol-2-yl)dibenzo[b,d]furan-3-sulfonamido)-3-methylbutanoic acid] — lower, < 1.5 nM
- COc1ccc2sc(-c3ccc4oc5cc(S(=O)(=O)N[C@H](C(=O)O)C(C)C)ccc5c4c3)nc2c1 [Compound 225, (S)-2-(8-(5-methoxybenzo[d]thiazol-2-yl)dibenzo[b,d]furan-3-sulfonamido)-3-methylbutanoic acid] — lower, < 1.5 nM
- CC(C)[C@H](NS(=O)(=O)c1ccc2c(c1)oc1cc(-c3nc4ccccc4s3)ccc12)C(=O)O [Compound 226, (S)-2-(7-(benzo[d]thiazol-2-yl)dibenzo[b,d]furan-3-sulfonamido)-3-methylbutanoic acid] — 77-fold lower, 1.7 nM
- CC(C)[C@H](NS(=O)(=O)c1ccc2c(c1)oc1cc(-c3nc4ccccc4o3)ccc12)C(=O)O [Compound 227, (S)-2-(7-(benzo[d]oxazol-2-yl)dibenzo[b,d]furan-3-sulfonamido)-3-methylbutanoic acid] — 21-fold lower, 6.1 nM
- Cc1nc(-c2cnc(-c3ccc4c(c3)oc3cc(S(=O)(=O)N[C@H](C(=O)O)C(C)C)ccc34)s2)no1 [Compound 228, (S)-3-methyl-2-(7-(5-(5-methyl-1,2,4-oxadiazol-3-yl)thiazol-2-yl)dibenzo[b,d]furan-3-sulfonamido)butanoic acid] — lower, < 1.5 nM
- CCc1ccc(-c2ccc3c(c2)oc2cc(S(=O)(=O)N[C@H](C(=O)O)C(C)C)ccc23)s1 [Compound 229, (S)-2-(7-(5-ethylthiophen-2-yl)dibenzo[b,d]furan-3-sulfonamido)-3-methylbutanoic acid] — lower, < 1.5 nM
- Cc1nc(C)c(-c2ccc3c(c2)oc2cc(S(=O)(=O)N[C@H](C(=O)O)C(C)C)ccc23)s1 [Compound 230, (S)-2-(7-(2,4-dimethylthiazol-5-yl)dibenzo[b,d]furan-3-sulfonamido)-3-methylbutanoic acid] — lower, < 1.5 nM
- CC(C)[C@H](NS(=O)(=O)c1ccc2c(c1)oc1cc(-c3ccc(C(C)(C)C)o3)ccc12)C(=O)O [Compound 231, (S)-2-(7-(5-tert-butylfuran-2-yl)dibenzo[b,d]furan-3-sulfonamido)-3-methylbutanoic acid] — 39-fold lower, 3.4 nM
- CCCc1ccc(-c2ccc3c(c2)oc2cc(S(=O)(=O)N[C@H](C(=O)O)C(C)C)ccc23)s1 [Compound 232, (S)-3-methyl-2-(7-(5-propylthiophen-2-yl)dibenzo[b,d]furan-3-sulfonamido)butanoic acid] — lower, < 1.5 nM
- CC(C)[C@H](NS(=O)(=O)c1ccc2c(c1)oc1cc(-c3nc(C(F)(F)F)c(Cl)s3)ccc12)C(=O)O [Compound 233, (S)-2-(7-(5-chloro-4-(trifluoromethyl)thiazol-2-yl)dibenzo[b,d]furan-3-sulfonamido)-3-methylbutanoic acid] — lower, < 1.5 nM
- Cc1cnc(-c2ccc3c(c2)oc2cc(S(=O)(=O)N[C@H](C(=O)O)C(C)C)ccc23)s1 [Compound 234, (S)-3-methyl-2-(7-(5-methylthiazol-2-yl)dibenzo[b,d]furan-3-sulfonamido)butanoic acid] — lower, < 1.5 nM
- Cc1nc(CC(C)C)sc1-c1ccc2c(c1)oc1cc(S(=O)(=O)N[C@H](C(=O)O)C(C)C)ccc12 [Compound 235, (S)-2-(7-(2-isobutyl-4-methylthiazol-5-yl)dibenzo[b,d]furan-3-sulfonamido)-3-methylbutanoic acid] — 12-fold lower, 11 nM
- CC(C)[C@H](NS(=O)(=O)c1ccc2c(c1)oc1cc(-c3nc4ccc(C(F)(F)F)cc4s3)ccc12)C(=O)O [Compound 236, (S)-3-methyl-2-(7-(6-(trifluoromethyl)benzo[d]thiazol-2-yl)dibenzo[b,d]furan-3-sulfonamido)butanoic acid] — 11-fold lower, 12 nM
- CC(C)[C@H](NS(=O)(=O)c1ccc2c(c1)oc1cc(-c3nc4ccc(F)cc4s3)ccc12)C(=O)O [Compound 237, (S)-2-(7-(6-fluorobenzo[d]thiazol-2-yl)dibenzo[b,d]furan-3-sulfonamido)-3-methylbutanoic acid] — lower, < 1.5 nM
- CCc1ccc(-c2ccc3c(c2)oc2ccc(S(=O)(=O)N[C@@H](C(=O)O)C(C)C)cc23)s1 [Compound 239, (R)-2-(7-(5-ethylthiophen-2-yl)dibenzo[b,d]furan-2-sulfonamido)-3-methylbutanoic acid] — lower, < 1.5 nM
- CC(C)[C@@H](NS(=O)(=O)c1ccc2oc3cc(-c4ccc(C(C)(C)C)o4)ccc3c2c1)C(=O)O [Compound 240, (R)-2-(7-(5-tert-butylfuran-2-yl)dibenzo[b,d]furan-2-sulfonamido)-3-methylbutanoic acid] — 6.9-fold lower, 19 nM
- CC(C)[C@H](NS(=O)(=O)c1ccc2oc3cc(-c4ccc(C(C)(C)C)o4)ccc3c2c1)C(=O)O [Compound 241, (S)-2-(7-(5-tert-butylfuran-2-yl)dibenzo[b,d]furan-2-sulfonamido)-3-methylbutanoic acid] — within 1.5-fold, 170 nM
- CCc1ccc(-c2ccc3c(c2)oc2ccc(S(=O)(=O)N[C@H](C(=O)O)C(C)C)cc23)s1 [Compound 242, (S)-2-(7-(5-ethylthiophen-2-yl)dibenzo[b,d]furan-2-sulfonamido)-3-methylbutanoic acid] — 16-fold lower, 8.4 nM
- CCCc1ccc(-c2ccc3c(c2)oc2ccc(S(=O)(=O)N[C@@H](C(=O)O)C(C)C)cc23)s1 [Compound 243, (R)-3-methyl-2-(7-(5-propylthiophen-2-yl)dibenzo[b,d]furan-2-sulfonamido)butanoic acid] — 87-fold lower, 1.5 nM
- CC(C)Cc1ncc(-c2ccc3c(c2)oc2ccc(S(=O)(=O)N[C@@H](C(=O)O)C(C)C)cc23)s1 [Compound 244, (R)-2-(7-(2-isobutylthiazol-5-yl)dibenzo[b,d]furan-2-sulfonamido)-3-methylbutanoic acid] — 39-fold lower, 3.4 nM
- Cc1nc(CC(C)C)sc1-c1ccc2c(c1)oc1ccc(S(=O)(=O)N[C@@H](C(=O)O)C(C)C)cc12 [Compound 245, (R)-2-(7-(2-isobutyl-4-methylthiazol-5-yl)dibenzo[b,d]furan-2-sulfonamido)-3-methylbutanoic acid] — 10-fold lower, 13 nM
- CCCc1ccc(-c2ccc3c(c2)oc2ccc(S(=O)(=O)N[C@H](C(=O)O)C(C)C)cc23)s1 [Compound 246, (S)-3-methyl-2-(7-(5-propylthiophen-2-yl)dibenzo[b,d]furan-2-sulfonamido)butanoic acid] — 21-fold lower, 6.2 nM
